Patent US5668146A, “Symmetrical bis-heteroarylmethoxyphenyliminoxyalkyl carboxylates as inhibitors of leukotriene biosynthesis” (Abbott Laboratories, priority 1996, dated 1997)

Experiments:
leukotriene biosynthesis [1] = conditions: oral; Prasit, et al., 1991; cited from earlier work
[2] = test system: 5-Lipoxygenase From Stimulated LTB4 Formation in Human Polymorphonuclear Leukocytes; experiment: Inhibition of calcium ionophore-induced LTB4 formation in human polymorphonuclear leukocytes (PMNL); assay type: cell-based; conditions: calcium ionophore 8.3 μM, 10 min at 37° C., 15 min preincubation
Experimental: Inhibition of leukotriene biosynthesis was evaluated in an assay involving calcium ionophore-induced LTB4 expressed in human polymorphonuclear leukocytes (PMNL). Human PMNL isolated from heparinized (20 USP units/mL) venous blood (25 mL) obtained from healthy volunteers was layered over an equal volume of Ficoll-Hypaque Mono-Poly Resolving Medium (ICN Flow, Costa Mesa, Calif.) and centrifugated at 400×g for 40 minutes at 20° C. The PMNL was collected, erythrocytes lysed and washed 2× and suspended at 1.0×10^7 cells/mL in Earle's balanced salt solution with 17 mM Earle's HEPES. Aliquots of the cell suspension were preincubated with test compounds dissolved in DMSO (final concentration <2%) for 15 minutes and stimulated with calcium ionophore (final concentration 8.3 μM) for 10 minutes at 37° C. Incubations were stopped with the addition of two volumes of ice cold methanol followed by centrifuging the cell suspensions at 4° C. for 10 minutes at 450×g. The amount of LTB4 in the methanol extract was analyzed by enzyme-linked immunoassay or by HPLC analysis.

leukotriene biosynthesis [3] = experiment: Ionophore A-23187-Induced Rat Pleural Inflammation Model (in vivo leukotriene inhibition); conditions: male rats, dosed one hour prior to intrapleural A23187 (20 μg), lavage after 30 min, eicosanoids by enzyme immunoassay
Experimental: Inhibition of leukotriene biosynthesis in vivo was evaluated using the Ionophore A-23187-Induced Rat Plueral Inflammation Model. Pleural inflammation was induced in male rats following the method of Rao, et al. (Rao, T. S., Currie, J. L., Shaffer, A. F., Isakson, P. C., Evaluation of 5-lipoxygenase Inhibitors, Zileuton, A78773 and ICI D-2 138 in an Ionophore (A-23187) Induced Pleural Inflammation Model in the Rat, Life Sciences, 53, 147 (1993)). Rats were dosed with experimental compounds in 0.2% methocel one hour prior to the intrapleural injection of the calcium ionophore, A23187. The rats where lightly anaesthetized with Pentrane (Abbott Laboratories) and injected intrapleurally with 0.5 ml of 2% ethanol in injectable saline (Abbott Laboratories) containing 20 μg of A23187 (Cal BioChem-Novabiochem). Thirty minutes later the animals were euthanised and the pleural cavities lavaged with ice cold saline (Abbott Laboratories). The lavage fluid was then added to ice cold methanol (final methanol concentration 30%) to lyse cells and precipitate protein. Eicosanoids were determined by enzyme immunoassay by standard methods.

Row | Compound | IC50 [2] [nM] | orally active leukotriene biosynthesis inhibitor (in words) (leukotriene biosynthesis [1]) | ED50 (leukotriene biosynthesis [3]) [mg/kg]
1 | O=C(O)CSC(CCCc1ccc(Cl)cc1)c1ccc(OCc2ccc3ccccc3n2)cc1 (centres unmarked) [((4-(4-chlorophenyl)-1-(4-(2-quinolylmethoxy)phenyl)butyl)thio)acetic acid] |  | orally active leukotriene biosynthesis inhibitor | 
2 | CC(=NOC(c1ccc(OCc2ccc3ccccc3n2)cc1)c1ccc(OCc2ccc3ccccc3n2)cc1)C(=O)O [Example 2, 2-(bis(4-(2-quinolylmethoxy)phenyl)methyliminoxy)propionic acid] | 160 |  | 2
3 | O=C(O)C=NOC(c1ccc(OCc2ccc3ccccc3n2)cc1)c1ccc(OCc2ccc3ccccc3n2)cc1 [Example 1, bis(4-(2-quinolylmethoxy)phenyl)methyliminoxyacetic acid] | 68 |  | 

The remaining molecules from weak to strong by IC50 [2], led by results:

Row | IC50 [2] [nM] | Compound | orally active leukotriene biosynthesis inhibitor (in words) (leukotriene biosynthesis [1]) | ED50 (leukotriene biosynthesis [3]) [mg/kg]
4 | 50 | CC(CCC(=O)O)=NOC(c1ccc(OCc2ccc3ccccc3n2)cc1)c1ccc(OCc2ccc3ccccc3n2)cc1 [Example 7, 4-(bis(4-(2-quinolylmethoxy)phenyl)methyliminoxy)pentanoic acid] |  | 1
5 | 40 | CC(=NOC(c1ccc(OCc2ccc3cc(F)ccc3n2)cc1)c1ccc(OCc2ccc3cc(F)ccc3n2)cc1)C(=O)O [Example 6, 2-(bis(4-(6-fluoro-2-quinolylmethoxy)phenyl)methyliminoxy)propionic acid] |  | 
6 | 30 | CC(/C=C/C(=O)O)=NOC(c1ccc(OCc2ccc3ccccc3n2)cc1)c1ccc(OCc2ccc3ccccc3n2)cc1 [Example 8] |  | 
